What was measured:
Test in all cases: relative viability (nuclei count vs DMSO), 5 days (fraction); higher = more cells survive
NCI-H1793 = tested on: NCI-H1793
Summary of the method: (§1)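 One day after seeding in 1536-well plates, lung cancer cell lines were dosed by pin tool. Dosing was either single-drug or a fixed anchor-drug dose plus five library-drug doses (not always all listed) in √10 steps. After 5 days, nuclei were stained in one fix-and-stain step and counted on 4× images, and relative viability is the nuclei count of treated wells over that of vehicle wells, given as the median of duplicate plates.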

NCI-H23 = tested on: NCI-H23
Summary of the method: as §1

HARA = tested on: HARA
Summary of the method: as §1

LC-2-ad = tested on: LC-2-ad
Summary of the method: as §1

NCI-H2023 = tested on: NCI-H2023
Summary of the method: as §1

HCC-78 = tested on: HCC-78
Summary of the method: as §1

NCI-H2009 = tested on: NCI-H2009
Summary of the method: as §1

NCI-H2228 = tested on: NCI-H2228
Summary of the method: as §1

COR-L23 = tested on: COR-L23
Summary of the method: as §1

HCC-15 = tested on: HCC-15
Summary of the method: as §1

NCI-H1944 = tested on: NCI-H1944
Summary of the method: as §1

ChaGo-K-1 = tested on: ChaGo-K-1
Summary of the method: as §1

A-427 = tested on: A-427
Summary of the method: as §1

SK-LU-1 = tested on: SK-LU-1
Summary of the method: as §1

HCC-366 = tested on: HCC-366
Summary of the method: as §1

NCI-H838 = tested on: NCI-H838
Summary of the method: as §1

NCI-H2405 = tested on: NCI-H2405
Summary of the method: as §1

ABC-1 = tested on: ABC-1
Summary of the method: as §1

EMC-BAC-2 = tested on: EMC-BAC-2
Summary of the method: as §1

LK-2 = tested on: LK-2
Summary of the method: as §1

NCI-H1650 = tested on: NCI-H1650
Summary of the method: as §1

NCI-H1993 = tested on: NCI-H1993
Summary of the method: as §1

UMC-11 = tested on: UMC-11
Summary of the method: as §1

NCI-H1734 = tested on: NCI-H1734
Summary of the method: as §1

CC(C)Oc1cc(Nc2nc(N[C@@H](C)c3ccc(F)cn3)ncc2Cl)n[nH]1 [AZ23] + O=C(CCCCCCC(=O)Nc1ccccc1)NO [Vorinostat] (partner 1 µM)
relative viability (NCI-H1793; first compound 0.01 µM): 0.679 | relative viability (NCI-H1793; first compound 0.03162 µM): 0.811 | relative viability (NCI-H1793; first compound 0.3162 µM): 0.892 | relative viability (NCI-H23; first compound 0.03162 µM): 0.62 | relative viability (NCI-H23; first compound 0.3162 µM): 0.719 | relative viability (HARA; first compound 0.01 µM): 0.58 | relative viability (HARA; first compound 0.03162 µM): 0.471 | relative viability (HARA; first compound 0.3162 µM): 0.383 | relative viability (LC-2-ad; first compound 0.01 µM): 0.86 | relative viability (LC-2-ad; first compound 0.03162 µM): 0.789 | relative viability (LC-2-ad; first compound 0.3162 µM): 0.716 | relative viability (NCI-H2023; first compound 0.03162 µM): 0.605 | relative viability (NCI-H2023; first compound 0.3162 µM): 0.861 | relative viability (HCC-78; first compound 0.01 µM): 0.432 | relative viability (HCC-78; first compound 0.03162 µM): 0.401 | relative viability (HCC-78; first compound 0.3162 µM): 0.341 | relative viability (NCI-H2009; first compound 0.01 µM): 0.704 | relative viability (NCI-H2009; first compound 0.03162 µM): 0.787 | relative viability (NCI-H2009; first compound 0.3162 µM): 0.793 | relative viability (NCI-H2228; first compound 0.01 µM): 0.72 | relative viability (NCI-H2228; first compound 0.03162 µM): 0.585 | relative viability (NCI-H2228; first compound 0.3162 µM): 0.628 | relative viability (COR-L23; first compound 0.01 µM): 0.164 | relative viability (COR-L23; first compound 0.03162 µM): 0.498 | relative viability (COR-L23; first compound 0.3162 µM): 0.424 | relative viability (HCC-15; first compound 0.01 µM): 0.921 | relative viability (HCC-15; first compound 0.03162 µM): 0.963 | relative viability (HCC-15; first compound 0.3162 µM): 0.788 | relative viability (NCI-H1944; first compound 0.01 µM): 0.409 | relative viability (NCI-H1944; first compound 0.03162 µM): 0.625 | relative viability (NCI-H1944; first compound 0.3162 µM): 0.631 | relative viability (ChaGo-K-1; first compound 0.01 µM): 0.936 | relative viability (ChaGo-K-1; first compound 0.03162 µM): 0.798 | relative viability (ChaGo-K-1; first compound 0.3162 µM): 0.82 | relative viability (A-427; first compound 0.01 µM): 0.699 | relative viability (A-427; first compound 0.03162 µM): 0.892 | relative viability (A-427; first compound 0.3162 µM): 0.988 | relative viability (SK-LU-1; first compound 0.03162 µM): 0.801 | relative viability (SK-LU-1; first compound 0.3162 µM): 0.759 | relative viability (HCC-366; first compound 0.01 µM): 0.299 | relative viability (HCC-366; first compound 0.03162 µM): 0.428 | relative viability (HCC-366; first compound 0.3162 µM): 0.441 | relative viability (NCI-H838; first compound 0.01 µM): 0.768 | relative viability (NCI-H838; first compound 0.03162 µM): 0.687 | relative viability (NCI-H838; first compound 0.3162 µM): 0.626 | relative viability (NCI-H2405; first compound 0.01 µM): 0.922 | relative viability (NCI-H2405; first compound 0.03162 µM): 1.13 | relative viability (NCI-H2405; first compound 0.3162 µM): 1.01 | relative viability (ABC-1; first compound 0.01 µM): 0.957 | relative viability (ABC-1; first compound 0.03162 µM): 1.15 | relative viability (ABC-1; first compound 0.3162 µM): 1.19 | relative viability (EMC-BAC-2; first compound 0.01 µM): 0.333 | relative viability (EMC-BAC-2; first compound 0.03162 µM): 0.511 | relative viability (EMC-BAC-2; first compound 0.3162 µM): 0.505 | relative viability (LK-2; first compound 0.01 µM): 0.22 | relative viability (LK-2; first compound 0.03162 µM): 0.216 | relative viability (LK-2; first compound 0.3162 µM): 0.3 | relative viability (NCI-H1650; first compound 0.01 µM): 0.441 | relative viability (NCI-H1650; first compound 0.03162 µM): 1.16 | relative viability (NCI-H1650; first compound 0.3162 µM): 0.737 | relative viability (NCI-H1993; first compound 0.01 µM): 0.634 | relative viability (NCI-H1993; first compound 0.03162 µM): 0.654 | relative viability (NCI-H1993; first compound 0.3162 µM): 0.814 | relative viability (UMC-11; first compound 0.01 µM): 0.281 | relative viability (UMC-11; first compound 0.03162 µM): 0.384 | relative viability (UMC-11; first compound 0.3162 µM): 0.357 | relative viability (NCI-H1734; first compound 0.01 µM): 0.64 | relative viability (NCI-H1734; first compound 0.03162 µM): 0.88 | relative viability (NCI-H1734; first compound 0.3162 µM): 1.06
